Data published in US9809562B2, “NAT10 modulators for treating or preventing laminopathies, aging and cancer” (CAMBRIDGE ENTERPRISE LIMITED, priority 2014, dated 2017).
Counter-ions that a name gives are not always drawn.

Key:
[1] = tested on: non-laminopathic Werner syndrome cells; assay: Misshapen nuclei in Werner syndrome cells; format: cell-based, human
Text: FIG. 10: Remodelin rescues nuclear shape of aged MRC5 cells but not WS cells in a dose dependent manner. A) Misshapen nuclei observed by DAPI staining in MRC5 aged cells in culture, at population doubling 44 (PD44) were rescued by Remodelin. B) Quantification of misshapen nuclei after increasing concentrations of Remodelin (mean of three independent experiments±s.e.m.). C) DAPI staining of non-laminopathic Werner Syndrome cells (WS) showing no nuclear shape improvement upon Remodelin treatment. D) Cell Profiler quantification of misshapen nuclei (mean of three independent experiments±s.d. n>273). Scale bars: 50 μm.
U2OS and SaOS-2 osteosarcoma cells, HeLa cervical cancer cells, A431 melanoma cells, NCI-SNU5 gastric cancer cells, MRC-5 lung fibroblast cells and Werner syndrome patient-derived SV40 fibroblast cells were grown in Dulbecco's modified Eagle medium (DMEM, Sigma-Aldrich) supplemented with 10% fetal bovine serum (BioSera), 2 mM L-glutamine, 100 U per ml penicillin, 100 μg ml^−1 streptomycin. Normal skin primary fibroblasts GM03440 and Hutchinson Gilford Progeria Syndrome (HGPS) skin primary fibroblasts AG11498 and AG06297 were purchased from Coriell Cell Repositories and used between passage number 9-12 and 20-23 respectively. Cells were grown in DMEM supplemented as above. […] Cells were analysed 48 to 72 hours after transfection.

[2] = tested on: farnesyltransferase activity (pre-Lamin A cleavage and maturation); assay: Lamin A processing by western blotting; format: cell-based, human
Protocol: The following KAT and KDAC inhibitors were used in the nuclear shape rescue screen, incubating cells with the molecules for 16 hours: trichostatin A (1 μM), sodium butyrate (5 mM), tubacin (10 μM), SAHA (5 μM), curcumin (10 μM), garcinol (50 μM), anacardic acid (1 μM), MB-3 (5 μM), 4-(4-chlorophenyl)-2-(2-cyclopentylidenehydrazinyl)thiazole (Compound 2) (50 μM), 4-(4-chlorophenyl)-2-(2-cyclopentylidene-1-(prop-2-yn-1-yl)hydrazinyl)thiazole (Compound 3) (50 μM) and cyclopentylidene-[4-(4-cyanophenyl)thiazol-2-yl)hydrazine (Compound 1) (Remodelin) (10 to 50 μM). For HGPS cellular fitness assays, Remodelin was incubated at 1 μM for 1 to 10 days, renewing the medium every 3 days. For long-term senescence assay, cells were kept and passaged in medium containing 1 μM Remodelin or DMSO only for 12 population doublings. Senescence was assessed after 8 days of Remodelin treatment when cells were at Population Doubling 12, and then after several weeks of Remodelin treatment, when cells reached Population Doubling 24 using the Senescence β-Galactosidase Staining Kit #9860 from Cell Signaling. […]
Total cell extracts were prepared by scraping cells in SDS lysis buffer (4% SDS, 20% glycerol, and 120 mM Tris-HCl, pH 6.8), boiling for 5 minutes at 95° C., followed by 10 strokes through a 25-gauge needle. […] Detection and quantification was performed with an imager (Odyssey; LI-COR Biosciences).

siLMNA cells = assay: Micrococcal nuclease digestion sensitivity assay and nuclear area (chromatin compaction); format: cell-based, human
Protocol: CellProfiler software was used to quantify nuclear circularity and nuclear area from DAPI staining pictures, using the “object size shape” measurement. The AreaShape measurement allowed the calculation of the Form Factor index ([…]) corresponding to circularity (a Form Factor of 1 reflecting a perfect circle), as well as the calculation of nuclear Area.
1×10^6 cells were trypsinized, harvested, and washed once with 1 ml of 1×RSB buffer (10 mM Tris, pH 7.6, 15 mM NaCl, and 1.5 mM MgCl2). After centrifugation ([…]), the cell pellet was resuspended in 1 ml of 1×RSB buffer with 1% Triton-X 100 and homogenized by five strokes with a loose-fitting glass pestle to release nuclei. Nuclei were collected by centrifugation (13,000×g) and washed twice with 1 ml of buffer A (15 mM Tris, pH 7.5, 15 mM NaCl, 60 mM KCl, 0.34 M sucrose, 0.5 mM spermidine, 0.15 mM spermine, 0.25 mM PMSF, and 0.1% β-mercaptoethanol). Nuclei were resuspended in Buffer A and aliquoted into 100 μl aliquots. […] DNA was purified using the Qiagen PCR purification kit and 1500 ng of DNA was analysed on a 1.5% agarose gel. Digestion profiles were analysed using ImageJ and values were adjusted relative to the global intensity of each lane to compensate for DNA loading variations.

[3] = tested on: main lysine acetyltranferase proteins (KAT); assay: In vitro specificity against lysine acetyltransferases; format: biochemical
[4] = tested on: tissues from Lmna^G609G/G609G mice; assay: γH2AX relative to total H2AX in mouse tissues (western blot); format: in vivo
Protocol: Tissues from wild type mice or Lmna^G609G/G609G mice treated with Compound 2 were harvested and proteins were extracted and loaded on a western blot which is shown in FIG. 26. Lmna^G609G/G609G mice indeed show progerin expression (readily detectable mainly in the Lung tissues), confirming their genotype. DNA damage was assessed by the DNA double strand break marker γH2AX that was quantified using a Licor Odyssey Imaging system.

| Compound | misshapen nuclei of Werner syndrome cells [1] | pre-Lamin A processing [2] | global chromatin compaction (MNase sensitivity) (siLMNA cells) | nuclear area (siLMNA cells) | inhibition of KAT activity towards histone substrates [3] | DNA damage (γH2AX relative to total H2AX) ([4]; heart and lung, treated vs untreated Lmna^G609G/G609G mice) | DNA damage (γH2AX relative to total H2AX) ([4]; liver extracts) |
| --- | --- | --- | --- | --- | --- | --- | --- |
| N#Cc1ccc(-c2csc(NN=C3CCCC3)n2)cc1 [Compound 1, 4-(4-Cyanophenyl)-2-(2-cyclopentylidenehydrazinyl)thiazole] | no detectable effect on misshapen nuclei | did not block pre-Lamin A cleavage and maturation |  |  |  |  |  |
| Clc1ccc(-c2csc(NN=C3CCCC3)n2)cc1 [Compound 2, 4-(4-Chlorophenyl)-2-(2-cyclopentylidenehydrazinyl)thiazole Hydrochloride Salt] |  |  | decreased MNase sensitivity | reduced nuclear area | does not inhibit the activity of the main lysine acetyltranferase proteins (KAT) | clear decrease of DNA damage | No effect |
